The values below come from US20210154190A1, “SHP2 INHIBITOR COMPOSITIONS AND METHODS FOR TREATING CANCER” (Revolution Medicines, Inc., priority 2018, published 2021).

Common to all, as to type: cell-based
One assay deals with T1, SHP2 WT (Homo sapiens, UniProt Q06124).
T1 construct: expressed in transfected cells; host or cells: Flp-In T-REx-293 (T-REx-293-SHP2)
The assay can be described thus: EGF-induced pERK AlphaLISA in T-REx-293-SHP2 cells, WT. The note with it: Variant WT. As to the method:
(§1) An experimental system was creating to test the activity of SHP2 mutants on an isogenic background (FIG. 6). The Flp-In T-REx-293 cell line was obtained from Gibco® and cultivated in high glucose DMEM™ containing 2 mM L-glutamine (Hyclone®), supplemented with 10% FBS (Hyclone®), 1% penicillin/streptomycin (Gibco®), 100 μg/mL Zeocin™ (Gibco®), and 15 μg/mL blasticidin (Gibco®) in a humidified cell culture incubator at 37° C., 5% CO2.
(§2) Wild type or mutant SHP2 variants were synthesized and subcloned into the pcDNA5/FRT/TO vector (ThermoFisher). Plasmids were co-transfected with the pOG44 Flp recombinase expression plasmid (ThermoFisher®) into Flp-In T-REx-293 cells using X-tremegene 9 DNA transfection reagent (Sigma®), according to the manufacturer's instructions. […]
(§3) For the final 5 minutes of drug treatment, cells were stimulated with 50 ng/mL Epidermal Growth Factor (Sigma®). […] Samples were read using an EnVision Multilabel Plate Reader (Perkin Elmer®) using standard AlphaLISA settings. Assay data was plotted and EC50 values were determined using four-parameter concentration-response model in GraphPad Prism 7. […]

A further assay concerns the target T2, SHP2 E76K (Homo sapiens, UniProt Q06124, E76K).
T2 construct: expressed in transfected cells; host or cells: Flp-In T-REx-293 (T-REx-293-SHP2)
Nature of the assay: EGF-induced pERK AlphaLISA in T-REx-293-SHP2 cells, E76K. Particulars: Variant E76K. As to the method:
as §1, §2, §3

The target in another assay is T3, SHP2 D61G (Homo sapiens, UniProt Q06124, D61G).
T3 construct: expressed in transfected cells; host or cells: Flp-In T-REx-293 (T-REx-293-SHP2)
Nature of the assay: EGF-induced pERK AlphaLISA in T-REx-293-SHP2 cells, D61G. The note with it: Variant D61G. How it is done:
as §1, §2, §3

The target of the next assay is T4, SHP2 S189A (Homo sapiens, UniProt Q06124, S189A).
T4 construct: expressed in transfected cells; host or cells: Flp-In T-REx-293 (T-REx-293-SHP2)
The assay can be described thus: EGF-induced pERK AlphaLISA in T-REx-293-SHP2 cells, S189A. The note with it: Variant S189A. How it is done:
as §1, §2, §3
Background: Alpha assays give light when donor and acceptor beads are brought close together.

For a further assay, the target named is T5, SHP2 L262R (Homo sapiens, UniProt Q06124, L262R).
T5 construct: expressed in transfected cells; host or cells: Flp-In T-REx-293 (T-REx-293-SHP2)
The assay can be described thus: EGF-induced pERK AlphaLISA in T-REx-293-SHP2 cells, L262R. Particulars: Variant L262R. How it is done: as §1, §2, §3

For a further assay, the target named is T6, SHP2 P491S (Homo sapiens, UniProt Q06124, P491S).
T6 construct: expressed in transfected cells; host or cells: Flp-In T-REx-293 (T-REx-293-SHP2)
Nature of the assay: EGF-induced pERK AlphaLISA in T-REx-293-SHP2 cells, P491S. Particulars: Variant P491S. As to the method:
as §1, §2, §3

The target of another assay is T7, SHP2 F285S (Homo sapiens, UniProt Q06124, F285S).
T7 construct: expressed in transfected cells; host or cells: Flp-In T-REx-293 (T-REx-293-SHP2)
Nature of the assay: EGF-induced pERK AlphaLISA in T-REx-293-SHP2 cells, F285S. The note with it: Variant F285S. As to the method: as §1, §2, §3

The next assay addresses T8, SHP2 S502P (Homo sapiens, UniProt Q06124, S502P).
T8 construct: expressed in transfected cells; host or cells: Flp-In T-REx-293 (T-REx-293-SHP2)
Nature of the assay: EGF-induced pERK AlphaLISA in T-REx-293-SHP2 cells, S502P. Particulars: Variant S502P. How it is done:
as §1, §2, §3

Another assay deals with T9, SHP2 A72V (Homo sapiens, UniProt Q06124, A72V).
T9 construct: expressed in transfected cells; host or cells: Flp-In T-REx-293 (T-REx-293-SHP2)
The assay can be described thus: EGF-induced pERK AlphaLISA in T-REx-293-SHP2 cells, A72V. Particulars: Variant A72V. How it is done: as §1, §2, §3

The target of a further assay is T10, SHP2 G60V (Homo sapiens, UniProt Q06124, G60V).
T10 construct: expressed in transfected cells; host or cells: Flp-In T-REx-293 (T-REx-293-SHP2)
Nature of the assay: EGF-induced pERK AlphaLISA in T-REx-293-SHP2 cells, G60V. The note with it: Variant G60V. How it is done:
as §1, §2, §3

The target in the next assay is T11, SHP2 E69K (Homo sapiens, UniProt Q06124, E69K).
T11 construct: expressed in transfected cells; host or cells: Flp-In T-REx-293 (T-REx-293-SHP2)
Nature of the assay: EGF-induced pERK AlphaLISA in T-REx-293-SHP2 cells, E69K. The note with it: Variant E69K. How it is done: as §1, §2, §3

A further assay deals with T12, SHP2 G503V (Homo sapiens, UniProt Q06124, G503V).
T12 construct: expressed in transfected cells; host or cells: Flp-In T-REx-293 (T-REx-293-SHP2)
The assay can be described thus: EGF-induced pERK AlphaLISA in T-REx-293-SHP2 cells, G503V. The note with it: Variant G503V. How it is done:
as §1, §2, §3

The target of a further assay is T13, SHP2 Q506P (Homo sapiens, UniProt Q06124, Q506P).
T13 construct: expressed in transfected cells; host or cells: Flp-In T-REx-293 (T-REx-293-SHP2)
The assay can be described thus: EGF-induced pERK AlphaLISA in T-REx-293-SHP2 cells, Q506P. The note with it: Variant Q506P. As to the method: as §1, §2, §3

The target in the next assay is T14, SHP2 T253M/Q257L (Homo sapiens, UniProt Q06124, Q257L/T253M).
T14 sequence (Q06124 1-593 T253M/Q257L): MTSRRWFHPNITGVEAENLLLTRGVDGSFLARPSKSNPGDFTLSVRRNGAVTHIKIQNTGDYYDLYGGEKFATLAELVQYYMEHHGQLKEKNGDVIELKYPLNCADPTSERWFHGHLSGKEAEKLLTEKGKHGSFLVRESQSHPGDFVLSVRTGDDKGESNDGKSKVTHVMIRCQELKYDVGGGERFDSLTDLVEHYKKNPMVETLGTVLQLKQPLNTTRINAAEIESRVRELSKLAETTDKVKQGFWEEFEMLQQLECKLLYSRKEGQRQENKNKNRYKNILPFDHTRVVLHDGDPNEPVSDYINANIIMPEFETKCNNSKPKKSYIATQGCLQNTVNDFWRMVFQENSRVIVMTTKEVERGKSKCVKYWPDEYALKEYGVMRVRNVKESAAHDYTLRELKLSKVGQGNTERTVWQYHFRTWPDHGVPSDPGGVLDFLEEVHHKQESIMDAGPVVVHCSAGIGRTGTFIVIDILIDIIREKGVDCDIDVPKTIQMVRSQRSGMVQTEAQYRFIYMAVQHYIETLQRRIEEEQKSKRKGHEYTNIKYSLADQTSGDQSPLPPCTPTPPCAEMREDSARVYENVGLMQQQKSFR
Nature of the assay: EGF-induced pERK AlphaLISA in T-REx-293-SHP2 cells, T253M/Q257L. Details: expressed in transfected cells; host or cells: Flp-In T-REx-293 (T-REx-293-SHP2). As to the method:
as §1, §2, §3

The structures appear in SMILES notation.

As for `Cc1nc(N2CCC3(CC2)CO[C@@H](C)[C@H]3N)c(CO)nc1-c1cccc(Cl)c1Cl` [Compound B], the Cellular sensitivity entry is on record as “yes (Sensitive if IC50 < 2000 nM)” at SHP2 WT; “no (Sensitive if IC50 < 2000 nM)” on SHP2 E76K; “yes (Sensitive if IC50 < 2000 nM)” at SHP2 D61G; “yes (Sensitive if IC50 < 2000 nM)” on SHP2 S189A; “yes (Sensitive if IC50 < 2000 nM)” at SHP2 L262R; “no (Sensitive if IC50 < 2000 nM)” at SHP2 P491S. For the same molecule, the Cellular sensitivity result on SHP2 F285S is on record as “yes (Sensitive if IC50 < 2000 nM)”; on SHP2 S502P, “yes (Sensitive if IC50 < 2000 nM)”; on SHP2 A72V it was “no (Sensitive if IC50 < 2000 nM)”; at SHP2 G60V, “no (Sensitive if IC50 < 2000 nM)”; on SHP2 E69K, “yes (Sensitive if IC50 < 2000 nM)”; on SHP2 G503V it was “no (Sensitive if IC50 < 2000 nM)”. For the same molecule, the Cellular sensitivity entry on SHP2 Q506P is listed as “yes (Sensitive if IC50 < 2000 nM)”; on SHP2 T253M/Q257L (Variant T253M/Q257L) it was “no (Sensitive if IC50 < 2000 nM)”. Besides, at SHP2 T253M/Q257L (T253M/Q257L, cellular pERK), the “inhibition of engineered double mutant in the Compound B binding site” value was “insensitive to inhibition”.
